Holding throughout (assay): TORC1 pathway position of GFP reporter effects – S. cerevisiae, TORC1 bypass vs wild-type strains, mechanism study for yeast TOR pathway modulator project (AID 504479)
Holding throughout (settings): fluorescence ratio vs DMSO, at 10 µM

Experiment [1] concerns BY4741.
Experiment [2] deals with YBR084C-A.
Experiment [3] deals with YCL025C.
Experiment [4] concerns YCR005C.
Experiment [5] has as its system YKL103C.
Experiment [6] concerns YNL142W.
Setting [7] is: RPL19A-GFP in TORC1 bypass strain, stronger effect = lower value.
The mark [8] stands for this setting: AGP1-GFP in TORC1 bypass strain, stronger effect = higher value.
[9] abbreviates: CIT2-GFP in TORC1 bypass strain, stronger effect = higher value.
[10] abbreviates: LAP4-GFP in TORC1 bypass strain, stronger effect = higher value.
Setting [11] is: MEP2-GFP in TORC1 bypass strain, stronger effect = higher value.

The source made the active and inactive calls.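 The calls were made as follows: active = GFP ratio vs DMSO below 0.65 in a strain, using the primary screen cutoff set for that strain's protein target; inactive = the rest.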

Regarding `Cc1ccc(/C=C2/C(=O)ON=C2c2ccccc2)o1`, the GFP ratio vs DMSO in experiment [1] is 0.941 (inactive); in experiment [2] (setting [7]) it was 0.962; in experiment [2], 1 (inactive); in experiment [3] (setting [8]), 0.642; in experiment [3], 0.87 (inactive); in experiment [4] (setting [9]), 0.898. Moreover, the GFP ratio vs DMSO in experiment [4] is 1.23 (inactive); in experiment [5] (setting [10]), 1.15; in experiment [5], 1.99; in experiment [6] (setting [11]), 1.21; in experiment [6] it was 1.23 (inactive).

With `O=[N+]([O-])c1cc(O)c2ncccc2c1`, the GFP ratio vs DMSO in experiment [1] is 1.5 (inactive); in experiment [2] (setting [7]) it was 0.993; in experiment [2], 1.01 (inactive); in experiment [3] (setting [8]) it was 0.739; in experiment [3], 0.763 (inactive); in experiment [4] (setting [9]), 0.869. Besides, the GFP ratio vs DMSO in experiment [4] was 0.806 (inactive); in experiment [5] (setting [10]), 1.29; in experiment [5], 1.4 (inactive); in experiment [6] (setting [11]), 0.918; in experiment [6], 0.698 (inactive).

As to `Clc1ccc(N=c2ssnc2Cl)cc1`, the GFP ratio vs DMSO is 1.09 (inactive) in experiment [1]; 1.08 in experiment [2] (setting [7]); 1.02 (inactive) in experiment [2]; 0.884 in experiment [3] (setting [8]); 0.946 (inactive) in experiment [3]; 1.02 in experiment [4] (setting [9]). Further, the GFP ratio vs DMSO was 1.25 (inactive) in experiment [4]; 1.29 in experiment [5] (setting [10]); 1.64 in experiment [5]; 1.08 in experiment [6] (setting [11]); 1.04 (inactive) in experiment [6].

As to `Cc1ccc(C(c2cc(Cl)c3cccnc3c2O)N2CCN(C)CC2)cc1` (stereo unspecified), the GFP ratio vs DMSO was 0.736 (inactive) in experiment [1]; 0.949 in experiment [2] (setting [7]); 0.938 (inactive) in experiment [2]; 0.652 in experiment [3] (setting [8]); 0.76 (inactive) in experiment [3]; 0.583 in experiment [4] (setting [9]). Moreover, the GFP ratio vs DMSO in experiment [4] was 0.808 (inactive); in experiment [5] (setting [10]), 1.23; in experiment [5] it was 1.63; in experiment [6] (setting [11]), 1.03; in experiment [6], 0.862 (inactive).

With `c1ccc(-c2cccc(-c3ccccn3)n2)nc1`, the GFP ratio vs DMSO in experiment [1] is 0.833 (inactive); in experiment [2] (setting [7]) it was 0.963; in experiment [2], 0.926 (inactive); in experiment [3] (setting [8]), 0.927; in experiment [3], 0.984 (inactive); in experiment [4] (setting [9]), 0.688. Besides, the GFP ratio vs DMSO was 0.683 (inactive) in experiment [4]; 1.2 in experiment [5] (setting [10]); 1.5 in experiment [5]; 1 in experiment [6] (setting [11]); 0.847 (inactive) in experiment [6].

With `O=C1ON=C(c2ccccc2)/C1=C\c1ccco1`, the GFP ratio vs DMSO in experiment [1] was 0.875 (inactive); in experiment [2] (setting [7]), 0.897; in experiment [2] it was 0.947 (inactive); in experiment [3] (setting [8]), 0.759; in experiment [3], 1.01 (inactive); in experiment [4] (setting [9]), 0.826. Further, the GFP ratio vs DMSO in experiment [4] was 1.1 (inactive); in experiment [5] (setting [10]) it was 1.26; in experiment [5] it was 1.97; in experiment [6] (setting [11]) it was 0.993; in experiment [6], 1.1 (inactive).

For the compound `O=C(OCn1ncc(Br)c(Br)c1=O)c1ccc(F)cc1`, the GFP ratio vs DMSO is 0.853 (inactive) in experiment [1]; 1.06 in experiment [2] (setting [7]); 1.03 (inactive) in experiment [2]; 0.766 in experiment [3] (setting [8]); 1.02 (inactive) in experiment [3]; 0.803 in experiment [4] (setting [9]). The GFP ratio vs DMSO in experiment [4] is 1.06 (inactive); in experiment [5] (setting [10]), 1.67; in experiment [5], 2.44; in experiment [6] (setting [11]), 0.918; in experiment [6] it was 1.03 (inactive).

As to `CCSc1nnc(NC(=O)c2ccccn2)s1`, the GFP ratio vs DMSO is 0.875 (inactive) in experiment [1]; 0.97 in experiment [2] (setting [7]); 0.972 (inactive) in experiment [2]; 0.987 in experiment [3] (setting [8]); 0.979 (inactive) in experiment [3]; 0.867 in experiment [4] (setting [9]). Further, the GFP ratio vs DMSO in experiment [4] is 0.907 (inactive); in experiment [5] (setting [10]), 1.14; in experiment [5] it was 1.2 (inactive); in experiment [6] (setting [11]) it was 1.06; in experiment [6], 1.01 (inactive).

Take `CO[C@H]1C[C@@H]2CC[C@@H](C)[C@@](O)(O2)C(=O)C(=O)N2CCCC[C@H]2C(=O)O[C@H]([C@H](C)C[C@@H]2CC[C@@H](O)[C@H](OC)C2)CC(=O)[C@H](C)/C=C(\C)[C@@H](O)[C@@H](OC)C(=O)[C@H](C)C[C@H](C)/C=C/C=C/C=C/1C`: the GFP ratio vs DMSO in experiment [1] is 1.1 (inactive); in experiment [2] (setting [7]), 0.67; in experiment [2] it was 0.597; in experiment [3] (setting [8]) it was 1.51; in experiment [3], 2.28; in experiment [4] (setting [9]), 2.4. For the same compound, the GFP ratio vs DMSO is 3.29 in experiment [4]; 1.17 in experiment [5] (setting [10]); 2.52 in experiment [5]; 1.01 in experiment [6] (setting [11]); 12.5 in experiment [6].

On to `CCc1ccc(OCC(=O)NNC(=S)NC(=O)C2CC2)c(Br)c1`, for which the GFP ratio vs DMSO is 1.41 (inactive) in experiment [1]; 1.03 in experiment [2] (setting [7]); 1.15 (inactive) in experiment [2]; 0.819 in experiment [3] (setting [8]); 1.1 (inactive) in experiment [3]; 0.796 in experiment [4] (setting [9]). Moreover, the GFP ratio vs DMSO in experiment [4] is 0.882 (inactive); in experiment [5] (setting [10]), 1.3; in experiment [5], 2.76; in experiment [6] (setting [11]), 1.13; in experiment [6], 1.23 (inactive).

Take `COc1ccc([N+](=O)[O-])c(S(=O)(=O)c2ccc(Cl)cc2)n1`: the GFP ratio vs DMSO in experiment [1] was 1.04 (inactive); in experiment [2] (setting [7]) it was 0.937; in experiment [2], 0.829 (inactive); in experiment [3] (setting [8]), 0.905; in experiment [3], 1.18 (inactive); in experiment [4] (setting [9]), 0.761. Also, the GFP ratio vs DMSO was 0.9 (inactive) in experiment [4]; 1.92 in experiment [5] (setting [10]); 2.84 in experiment [5]; 1.01 in experiment [6] (setting [11]); 1.24 (inactive) in experiment [6].

Turning to `CSC1=NS(=O)(=O)c2c(C)nn(C)c2S1`, the GFP ratio vs DMSO is 0.833 (inactive) in experiment [1]; 0.9 in experiment [2] (setting [7]); 0.887 (inactive) in experiment [2]; 0.961 in experiment [3] (setting [8]); 1.01 (inactive) in experiment [3]; 0.826 in experiment [4] (setting [9]). In addition, the GFP ratio vs DMSO in experiment [4] is 0.78 (inactive); in experiment [5] (setting [10]), 1.06; in experiment [5], 1.36 (inactive); in experiment [6] (setting [11]), 0.862; in experiment [6] it was 0.972 (inactive).

Take `CC(C)(C)C(=O)NC(=S)NNC(=O)c1ccc(-c2ccccc2)cc1`: the GFP ratio vs DMSO in experiment [1] is 1.36 (inactive); in experiment [2] (setting [7]), 1.2; in experiment [2], 1.25 (inactive); in experiment [3] (setting [8]) it was 1.03; in experiment [3], 1.07 (inactive); in experiment [4] (setting [9]) it was 0.935. The GFP ratio vs DMSO was 1.37 (inactive) in experiment [4]; 1.47 in experiment [5] (setting [10]); 2.48 in experiment [5]; 1.27 in experiment [6] (setting [11]); 1.51 (inactive) in experiment [6].

For `Cn1ncc(S(=O)(=O)Cc2ccccc2)c(Cl)c1=O`, the GFP ratio vs DMSO in experiment [1] is 1.31 (inactive); in experiment [2] (setting [7]) it was 0.786; in experiment [2], 0.76 (inactive); in experiment [3] (setting [8]) it was 0.801; in experiment [3] it was 0.984 (inactive); in experiment [4] (setting [9]), 1.02. The GFP ratio vs DMSO in experiment [4] was 1.15 (inactive); in experiment [5] (setting [10]) it was 1.56; in experiment [5], 1.63; in experiment [6] (setting [11]), 0.971; in experiment [6], 1.46 (inactive).

Regarding `O=C(NC(=S)NNC(=O)c1cnccn1)c1ccc(F)cc1`, the GFP ratio vs DMSO in experiment [1] was 0.925 (inactive); in experiment [2] (setting [7]) it was 0.827; in experiment [2], 0.877 (inactive); in experiment [3] (setting [8]), 0.606; in experiment [3], 0.808 (inactive); in experiment [4] (setting [9]), 0.691. In addition, the GFP ratio vs DMSO was 0.716 (inactive) in experiment [4]; 1.35 in experiment [5] (setting [10]); 1.64 in experiment [5]; 0.971 in experiment [6] (setting [11]); 1.07 (inactive) in experiment [6].

For `COc1ccc(/C=C/C(=O)NC(=S)NNC(=O)c2cnccn2)cc1`, the GFP ratio vs DMSO in experiment [1] was 0.962 (inactive); in experiment [2] (setting [7]), 0.981; in experiment [2], 0.94 (inactive); in experiment [3] (setting [8]) it was 0.694; in experiment [3] it was 0.807 (inactive); in experiment [4] (setting [9]), 0.87. In addition, the GFP ratio vs DMSO in experiment [4] was 1.03 (inactive); in experiment [5] (setting [10]), 1.18; in experiment [5] it was 1.51; in experiment [6] (setting [11]), 1.03; in experiment [6], 1.14 (inactive).

The values above are taken from PubChem BioAssay AID504479 (NMMLSC, 2011).
